Assay results from the NIST ThermoML archive (doi:10.1016/j.jct.2015.12.001).
± gives the expanded uncertainty stated by the source.

Assay: wn = mass fraction of the nth substance listed
Conditions: 100 kPa, Liquid, Concentric cylinders viscometry

CCN(CC)CCO [(diethylamino)ethanol] + O
viscosity [mPa·s]
Conditions | w1 = 0.3001 | w1 = 0.3499 | w1 = 0.4001 | w1 = 0.4501 | w1 = 0.4999 | w1 = 0.6001
303.2 K | 2.96 ± 0.34 | 3.34 ± 0.34 | 4.56 ± 0.34 | 5.06 ± 0.34 | 6.11 ± 0.34 | 8.41 ± 0.35
313.2 K | 2.12 ± 0.34 | 2.36 ± 0.34 | 3.12 ± 0.34 | 3.65 ± 0.34 | 4.33 ± 0.34 | 5.52 ± 0.34
323.2 K | 1.59 ± 0.34 | 1.81 ± 0.34 | 2.23 ± 0.34 | 2.69 ± 0.34 | 3.07 ± 0.34 | 3.74 ± 0.34
